ChEMBL document CHEMBL2074202, “Biliary excretion of pravastatin in rats: contribution of the excretion pathway mediated by canalicular multispecific organic anion transporter” (Drug Metab Dispos, 1997)
One block for each molecule: values may come before it.

Legend:
[1] = target: ATP-binding cassette sub-family C member 2 (Rattus norvegicus, UniProt Q63120); experiment: TP_TRANSPORTER: inhibition of DNP-SG uptake in bile canalicular membrane vesicles from SD rat; type: functional, cell membranes, Sprague-Dawley, Bile canalicular membrane vesicle
[2] = substrate: CC[C@H](C)C(=O)O[C@H]1C[C@H](O)C=C2C=C[C@H](C)[C@H](CC[C@@H](O)C[C@@H](O)CC(=O)O)[C@H]21; experiment: TP_TRANSPORTER: uptake in bile canalicular membrane vesicles from SD rat; type: functional, cell membranes, Sprague-Dawley, Bile canalicular membrane vesicle

- Ki [1]: 172 µM
Molecule: CC[C@H](C)C(=O)O[C@H]1C[C@H](O)C=C2C=C[C@H](C)[C@H](CC[C@@H](O)C[C@@H](O)CC(=O)O)[C@H]21 [PRAVASTATIN]

B1: ATP-binding cassette sub-family C member 2 (Rattus norvegicus) (protein)
chain: MDKFCNSTFWDLSLLESPEADLPLCFEQTVLVWIPLGFLWLLAPWQLYSVYRSRTKRSSITKFYLAKQVFVVFLLILAAIDLSLALTEDTGQATVPPVRYTNPILYLCTWLLVLAVQHSRQWCVRKNSWFLSLFWILSVLCGVFQFQTLIRALLKDSKSNMAYSYLFFVSYGFQIVLLILTAFSGPSDSTQTPSVTASFLSSITFSWYDRTVLKGYKHPLTLEDVWDIDEGFKTRSVTSKFEAAMTKDLQKARQAFQRRLQKSQRKPEATLHGLNKKQSQSQDVLVLEEAKKKSEKTTKDYPKSWLIKSLFKTFHVVILKSFILKLIHDLLVFLNPQLLKLLIGFVKSSNSYVWFGYICAILMFAVTLIQSFCLQSYFQHCFVLGMCVRTTVMSSIYKKALTLSNLARKQYTIGETVNLMSVDSQKLMDATNYMQLVWSSVIQITLSIFFLWRELGPSILAGVGVMVLLIPVNGVLATKIRNIQVQNMKNKDKRLKIMNEILSGIKILKYFAWEPSFQEQVQGIRKKELKNLLRFGQLQSLLIFILQITPILVSVVTFSVYVLVDSANVLNAEKAFTSITLFNILRFPLSMLPMVTSSILQASVSVDRLERYLGGDDLDTSAIRRVSNFDKAVKFSEASFTWDPDLEATIQDVNLDIKPGQLVAVVGTVGSGKSSLVSAMLGEMENVHGHITIQGSTAYVPQQSWIQNGTIKDNILFGSEYNEKKYQQVLKACALLPDLEILPGGDMAEIGEKGINLSGGQKQRVSLARAAYQDADIYILDDPLSAVDAHVGKHIFNKVVGPNGLLAGKTRIFVTHGIHFLPQVDEIVVLGKGTILEKGSYRDLLDKKGVFARNWKTFMKHSGPEGEATVNNDSEAEDDDDGLIPTMEEIPEDAASLAMRRENSLRRTLSRSSRSSSRRGKSLKNSLKIKNVNVLKEKEKEVEGQKLIKKEFVETGKVKFSIYLKYLQAVGWWSILFIILFYGLNNVAFIGSNLWLSAWTSDSDNLNGTNNSSSHRDMRIGVFGALGLAQGICLLISTLWSIYACRNASKALHGQLLTNILRAPMRFFDTTPTGRIVNRFSGDISTVDDLLPQTLRSWMMCFFGIAGTLVMICMATPVFAIIIIPLSILYISVQVFYVATSRQLRRLDSVTKSPIYSHFSETVTGLPIIRAFEHQQRFLAWNEKQIDINQKCVFSWITSNRWLAIRLELVGNLVVFCSALLLVIYRKTLTGDVVGFVLSNALNITQTLNWLVRMTSEAETNIVAVERISEYINVENEAPWVTDKRPPADWPRHGEIQFNNYQVRYRPELDLVLKGITCNIKSGEKVGVVGRTGAGKSSLTNCLFRILESAGGQIIIDGIDVASIGLHDLRERLTIIPQDPILFSGSLRMNLDPFNKYSDEEVWRALELAHLRSFVSGLQLGLLSEVTEGGDNLSIGQRQLLCLGRAVLRKSKILVLDEATAAVDLETDSLIQTTIRKEFSQCTVITIAHRLHTIMDSDKIMVLDNGKIVEYGSPEELLSNRGSFYLMAKEAGIENVNHTEL
- Km [2]: 223 µM
